Data taken from US6288037A (BASF Aktiengesellschaft, priority 1996, dated 2001).
Where a SMILES comes first, the peptide text is derived from it.

What follows are compounds tested against T1, N-His Ich-1 (Homo sapiens, UniProt P42575) (assay: In vitro proteolysis assay: cleavage of candidate peptide substrates by N-His Ich-1 (reverse phase HPLC)). Settings: 10 μM peptide, 30° C., pH 6.2, 60 minute reaction.
T1 construct: contains Ich-1 amino acid residues 167-435, with an initiator and polyhistidine tag fused to the amino terminus; initiator (Met) + polyhistidine tag (N); made in house
T1 sequence (P42575 184-333): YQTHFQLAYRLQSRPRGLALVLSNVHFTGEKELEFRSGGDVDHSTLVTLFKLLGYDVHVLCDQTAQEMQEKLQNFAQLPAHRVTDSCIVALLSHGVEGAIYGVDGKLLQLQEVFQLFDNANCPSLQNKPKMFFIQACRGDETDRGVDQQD
T1 sequence (P42575 334-452): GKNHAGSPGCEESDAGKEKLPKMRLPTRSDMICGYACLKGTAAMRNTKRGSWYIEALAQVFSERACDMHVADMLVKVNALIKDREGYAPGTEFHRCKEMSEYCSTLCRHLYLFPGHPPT
Assay type: biochemical
Text: To identify peptide substrates for Ich-1, candidate peptides were used in in vitro proteolysis assays with recombinant Ich-1 protein. Human Ich-1 enzyme (the nucleotide and amino acid sequences for which are disclosed in Wang, L., et al. (1994) Cell 78:739-750) was expressed recombinantly with an N-terminal polyhistidine tag by methods described in Kamens, J., et al. (1995) J. Biol. Chem. 270:15250-15256. The resulting enzyme, called N-His Ich-1, contains Ich-1 amino acid residues 167-435, with an initiator and polyhistidine tag fused to the amino terminus. The recombinant N-His Ich-1 protein was purified by metal chelating column chromatography as described in Porath, J. (1992) Protein Expression and Purification 3:263-281.
Candidate peptide substrates were synthesized by standard solid phase methods and were purified to ≥95% by reverse-phase chromatography. Peptide identities were confirmed by mass spectrometry. Each peptide was acetylated at the amino-terminus and amidated at the carboxy-terminus. The amino acid sequence of each peptide included at least one Trp or Tyr residue. Stock solutions of each peptide were prepared in dimethylsulfoxide (DMSO) at approximately 10 mM. The precise concentration of each stock solution was determined in duplicate as described in Edelhoch, H. (1967) Biochemistry 6:1948-1954. Dilutions of each stock solution to 500 μM were prepared and stored at -20° C. prior to use in enzyme assays.
To determine the substrate specificity of Ich-1, Vmax /Km values for various candidate peptide substrates were compared using experimental procedures modeled after those of Howard, A., et al. (1991) J. Immunol. 147:2964-2969. Enzyme reaction mixtures (810 μL) were prepared containing: 100 mM sodium acetate (pH 6.2), 20% (v/v) glycerol, 5 mM dithiothreitol, 0.5 mM EDTA and approximately 15 μg N-His Ich-1. These mixtures were capped and preincubated for 30 minutes at 30° C. Candidate peptide substrates were added from 500 μM DMSO stocks to give final concentrations of 10 μM peptide and 2% (v/v) DMSO. The reaction mixtures were then capped and incubation was continued at 30° C. At 10 minute intervals for 60 minutes beginning at t=0, aliquots of 110 μL were removed from each reaction mixture and added to vials containing 11 μL of a solution of 3 M HCl in water to stop the enzyme reaction. Samples were stored at room temperature prior to analysis.
Samples were analyzed by reverse phase HPLC using a 250×4.6 mm C18 reverse phase column (Vydak, Hesperia, Calif.) and a linear gradient of MeCN--H2 O with 0.1% (v/v) TFA. The area under the substrate peaks (arbitrary units) was plotted vs. time of reaction for each substrate and fit into an equation of the form: [formula]
wherein S0 is substrate peak area at time=0, St is substrate peak area at time=t, e is a constant approximately equal to 2.718, k is the first order rate constant formally equal to Vmax /Km and t is time. […] Alternatively, results can be expressed as percent substrate cleavage after a fixed time of reaction.

Row | Compound | % Cleavage after 60 minute reaction [%]
1 | CC(=O)N[C@@H](CCCNC(=N)N)C(=O)NCC(=O)N[C@H](C(=O)N[C@@H](CC(=O)O)C(=O)N[C@@H](CCC(N)=O)C(=O)N[C@@H](CCC(N)=O)C(=O)N[C@@H](CC(=O)O)C(=O)NCC(=O)N[C@@H](CCCCN)C(=O)N[C@@H](CC(N)=O)C(=O)N[C@@H](Cc1c[nH]cn1)C(=O)N[C@@H](Cc1c[nH]c2ccccc12)C(N)=O)C(C)C [Peptide 1, acetyl-RGVDQQDGKNHW-amide] (Ac-RGVDQQDGKNHW-NH2) | 80
2 | CC(=O)N[C@@H](CC(N)=O)C(=O)N[C@@H](CCC(=O)O)C(=O)N[C@@H](C)C(=O)N[C@@H](Cc1ccc(O)cc1)C(=O)N[C@H](C(=O)N[C@@H](Cc1c[nH]cn1)C(=O)N[C@@H](CC(=O)O)C(=O)N[C@@H](C)C(=O)N1CCC[C@H]1C(=O)N[C@H](C(=O)N[C@@H](CCCNC(=N)N)C(=O)N[C@@H](CO)C(=O)N[C@@H](CC(C)C)C(=O)N[C@@H](Cc1ccc(O)cc1)C(N)=O)C(C)C)C(C)C [Peptide 2, acetyl-NEAYVHDAPVRSLY-amide] (Ac-NEAYVHDAPVRSLY-NH2) | 0
3 | CC(=O)N[C@@H](Cc1c[nH]c2ccccc12)C(=O)NCC(=O)N[C@@H](CC(=O)O)C(=O)N[C@@H](CCC(=O)O)C(=O)N[C@H](C(=O)N[C@@H](CC(=O)O)C(=O)NCC(=O)N[C@H](C(=O)N[C@@H](CC(=O)O)C(=O)N[C@@H](CCC(=O)O)C(=O)N[C@H](C(=O)N[C@@H](Cc1c[nH]c2ccccc12)C(N)=O)C(C)C)C(C)C)C(C)C [Peptide 3, acetyl-WGDEVDGVDEVW-amide] (Ac-WGDEVDGVDEVW-NH2) | 0
4 | CC(=O)N[C@@H](Cc1c[nH]cn1)C(=O)N[C@@H](CO)C(=O)N[C@@H](CC(C)C)C(=O)N[C@@H](CC(=O)O)C(=O)N[C@@H](CC(N)=O)C(=O)N[C@@H](CCCCN)C(=O)N[C@@H](CC(=O)O)C(=O)NCC(=O)N1CCC[C@H]1C(=O)N[C@H](C(=O)N[C@@H](Cc1c[nH]c2ccccc12)C(N)=O)C(C)C [Peptide 4, acetyl-HSLDNKDGPVW-amide] (Ac-HSLDNKDGPVW-NH2) | 0
5 | CSCC[C@H](NC(=O)[C@H](CC(=O)O)NC(=O)[C@H](CCC(=O)O)NC(=O)CNC(C)=O)C(=O)N[C@@H](CCC(N)=O)C(=O)N[C@@H](CC(=O)O)C(=O)N[C@@H](CC(N)=O)C(=O)N[C@@H](CO)C(=O)NCC(=O)N[C@H](C(=O)N[C@@H](Cc1ccc(O)cc1)C(=O)N[C@@H](Cc1c[nH]c2ccccc12)C(N)=O)[C@@H](C)O [Peptide 5, acetyl-GEDMQDNSGTYW-amide] (Ac-GEDMQDNSGTYW-NH2) | 1
6 | CSCC[C@H](NC(=O)[C@H](CCC(N)=O)NC(=O)[C@H](CC(=O)O)NC(=O)[C@H](CO)NC(=O)[C@H](Cc1ccc(O)cc1)NC(C)=O)C(=O)N[C@@H](CC(=O)O)C(=O)NCC(=O)N[C@@H](Cc1ccccc1)C(=O)N[C@@H](Cc1c[nH]cn1)C(=O)N[C@@H](CC(=O)O)C(=O)N[C@@H](CO)C(=O)N[C@@H](Cc1c[nH]c2ccccc12)C(N)=O [Peptide 6, acetyl-YSDQMDGFHDSW-amide] (Ac-YSDQMDGFHDSW-NH2) | 0
7 | CC[C@H](C)[C@H](NC(=O)CNC(=O)[C@H](CS)NC(C)=O)C(=O)N[C@@H](CCC(=O)O)C(=O)N[C@H](C(=O)N[C@@H](CC(=O)O)C(=O)N[C@@H](CO)C(=O)NCC(=O)N[C@H](C(=O)N[C@@H](CC(=O)O)C(=O)N[C@@H](CC(=O)O)C(=O)N[C@@H](Cc1c[nH]c2ccccc12)C(N)=O)C(C)C)[C@@H](C)O [Peptide 7, acetyl-CGIETDSGVDDW-amide] (Ac-CGIETDSGVDDW-NH2) | 8

Same assay, conditions: Tables 1-3

Row | Compound | cleavage by N-His Ich-1 (in words)
8 | CC(=O)N[C@@H](CCCNC(=N)N)C(=O)NCC(=O)N[C@H](C(=O)N[C@@H](CC(=O)O)C(=O)N[C@@H](CCC(N)=O)C(=O)N[C@@H](CCC(N)=O)C(=O)N[C@@H](CC(=O)O)C(=O)NCC(=O)N[C@@H](CCCCN)C(=O)N[C@@H](CC(N)=O)C(=O)N[C@@H](Cc1c[nH]cn1)C(=O)N[C@@H](Cc1c[nH]c2ccccc12)C(N)=O)C(C)C [Peptide 1, acetyl-RGVDQQDGKNHW-amide] (Ac-RGVDQQDGKNHW-NH2) | cleaved at a rate significantly greater than the other tested peptides
9 | CC(=O)N[C@@H](CC(=O)O)C(=O)N[C@@H](CC(=O)O)C(=O)N[C@@H](CCC(N)=O)C(=O)N[C@@H](CCC(N)=O)C(=O)N[C@@H](CC(=O)O)C(=O)NCC(=O)N[C@@H](Cc1c[nH]c2ccccc12)C(N)=O [Peptide 21, acetyl-DDQQDGW-amide] (Ac-DDQQDGW-NH2) | weak cleavage
10 | CC(=O)N[C@H](C(=O)N[C@@H](CO)C(=O)N[C@@H](CCC(N)=O)C(=O)N[C@@H](CCC(N)=O)C(=O)N[C@@H](CC(=O)O)C(=O)NCC(=O)N[C@@H](Cc1c[nH]c2ccccc12)C(N)=O)C(C)C [Peptide 22, acetyl-VSQQDGW-amide] (Ac-VSQQDGW-NH2) | tolerated, but is cleaved at a substantially lower efficiency than P4 Asp
11 | CC(=O)N[C@H](C(=O)N[C@@H](CCC(=O)O)C(=O)N[C@@H](CCC(N)=O)C(=O)N[C@@H](CCC(N)=O)C(=O)N[C@@H](CC(=O)O)C(=O)NCC(=O)N[C@@H](Cc1c[nH]c2ccccc12)C(N)=O)C(C)C [Peptide 23, acetyl-VEQQDGW-amide] (Ac-VEQQDGW-NH2) | not tolerated
12 | CC(=O)N[C@H](C(=O)N[C@@H](C)C(=O)N[C@@H](CCC(N)=O)C(=O)N[C@@H](CCC(N)=O)C(=O)N[C@@H](CC(=O)O)C(=O)NCC(=O)N[C@@H](Cc1c[nH]c2ccccc12)C(N)=O)C(C)C [Peptide 24, acetyl-VAQQDGW-amide] (Ac-VAQQDGW-NH2) | relatively poor cleavage
13 | CC(=O)N[C@H](C(=O)N[C@@H](CC(N)=O)C(=O)N[C@@H](CCC(N)=O)C(=O)N[C@@H](CCC(N)=O)C(=O)N[C@@H](CC(=O)O)C(=O)NCC(=O)N[C@@H](Cc1c[nH]c2ccccc12)C(N)=O)C(C)C [Peptide 25, acetyl-VNQQDGW-amide] (Ac-VNQQDGW-NH2) | not tolerated
14 | CC(=O)N[C@H](C(=O)N[C@@H](CC(=O)O)C(=O)N[C@@H](CCC(N)=O)C(=O)N[C@@H](Cc1ccc(O)cc1)C(=O)N[C@@H](CC(=O)O)C(=O)NCC(=O)N[C@@H](Cc1c[nH]c2ccccc12)C(N)=O)C(C)C [Peptide 40, acetyl-VDQYDGW-amide] (Ac-VDQYDGW-NH2) | poorly cleaved compared to the most preferred peptides
15 | CC(=O)N[C@H](C(=O)N[C@@H](CC(=O)O)C(=O)N[C@@H](CCC(N)=O)C(=O)N[C@@H](CCC(=O)O)C(=O)N[C@@H](CC(=O)O)C(=O)NCC(=O)N[C@@H](Cc1c[nH]c2ccccc12)C(N)=O)C(C)C [Peptide 41, acetyl-VDQEDGW-amide] (Ac-VDQEDGW-NH2) | poorly cleaved compared to the most preferred peptides
16 | CC(=O)N[C@H](C(=O)N[C@@H](CC(=O)O)C(=O)N[C@@H](CCC(N)=O)C(=O)N[C@@H](CCC(N)=O)C(=O)N[C@@H](CCC(=O)O)C(=O)NCC(=O)N[C@@H](Cc1c[nH]c2ccccc12)C(N)=O)C(C)C [Peptide 42, acetyl-VDQQEGW-amide] (Ac-VDQQEGW-NH2) | modest cleavage

The compounds below were run on N-His Ich-1 (assay: 100 mM sodium acetate (pH 6.2), 20% (v/v) glycerol, 5 mM dithiothreitol, 0.5 mM EDTA and approximately 15 μg N-His Ich-1). Settings: Human, 30° C., up to 60 minutes.

Row | Compound | not cleaved | cleaved bond
17 | Ac-GEDMQDNSGTYW-NH2 | 1% cleavage after 60 minute reaction | 
18 | Ac-HSLDNKDGPVW-NH2 | 0% cleavage after 60 minute reaction | 
19 | Ac-NEAYVHDAPVRSLY-NH2 | 0% cleavage after 60 minute reaction | 
20 | Ac-RGVDQQDGKNHW-NH2 |  | Asp7-Gly
21 | Ac-WGDEVDGVDEVW-NH2 | 0% cleavage after 60 minute reaction | 
22 | Ac-YSDQMDGFHDSW-NH2 | 0% cleavage after 60 minute reaction | 
